# Assays:
# [1] = Stability of Eu complexes on heating, at low pD and with Zn2+ (1H NMR); format: physicochemical
# [2] = 17O NMR water exchange (residence time of water co-ligand); format: physicochemical; details: 17O NMR at 11.7T
# Experimental: (§1) Relaxivity measurements were performed on a Bruker mq60 Minispec at 1.41T and 37 °C. Longitudinal (T1) relaxation times were measured using an inversion recovery experiment with 10 inversion times of duration ranging between 0.05 × T1 and 5 × T1. Transverse (T2) relaxation times were measured using a CPMG pulse sequence. Relaxivity (r1, r2) was determined from the slope of a plot of 1/T1,2 vs [Gd] for at least 4 concentrations of Gd(III) (data shown in Supplementary Figs. 93–110). The T2 relaxation times of ^17O at 11.7T were estimated from the full-width at half-height of the H2^17O resonance at temperatures ranging from 278 to 368K. Reduced relaxation rates (1/T2r) were calculated by taking the difference of 1/T2 measured in the presence and absence of Gd(III) and dividing by the mole fraction of coordinated water molecules, assuming q = 1. […] However, at the high magnetic field used, and because of the very-fast water exchange rates observed, there was negligible contribution of T1e, and the data were refit to a two-parameter model using the water exchange rate at 310K (τM) and enthalpy of activation for water exchange (ΔH^‡) as adjustable parameters. The Gd-O hyperfine coupling constant, A/ħ, was assumed to be -3.8 × 10^6 rad s^−1 [57], [58]. Samples were prepared in neat H2O adjusted and enriched with a small amount of H2^17O.
# [3] = Relaxivity measurements at 1.41T and 37 °C; format: physicochemical
# Experimental: as §1
# [4] = Gd complexes biodistribution studies (ICP-MS); format: in vivo, BALB/c mice; details: 0.025 mmol/kg i.v., 5-360 min post injection
# Excerpt: Most commercially available Gd(III)-based MRI contrast agents are excreted rapidly and exclusively through the renal pathway. One of the few exceptions is an acyclic compound, Gd-EOB-DTPA, which has a mixed clearance (50% renal, 50% biliary) and is used for imaging of the liver and biliary system. Gd-BOPTA and MS-325 have predominantly renal elimination with <10% elimination through the biliary system. […] We illustrated with our studies that there is a significant variation in the biodistribution profiles despite the small structural differences of the chiral substituents (Supplementary Fig. 20). Gd biodistribution in BALB/c mice was measured by ICP-MS at 5, 15, 30, 60, 180 and 360 min following injection. […] Low levels of Gd(III) are present at 6 h post injection. […] The specific and unusual localisation of [GdL2]^− in the liver makes it a potential hepatobiliary-specific MRI contrast agent.
# (§2) Gd concentrations were determined using an Agilent 8800-QQQ ICP-MS system. All samples were diluted with 0.1% Triton X-100 in 5% nitric acid. Lutetium internal standard was steadily introduced to the ICP-MS from an external source during the analysis. A linear calibration curve for each metal ranging from 0.1 ppb to 200 ppb was generated daily for the quantification.
# Complexes [GdL1]^−, [GdL2]^− and [GdL5]^− were prepared by dissolving in saline solution, while [GdDOTA]^− (Dotarem) was diluted in saline solution. Eight-week-old male BALB/c mice (purchased from BioLASCO, Taiwan) each weighing approximately 25 g were administered with a single dose of 0.025 mmol/kg compound ([GdL1]^−, [GdL2]^−, [GdDOTA]^− and [GdL5]^−; 3 mice per compound per time point) in a 100 μl volume via lateral tail vein injection. The mice were then euthanized, and their blood collected by cardiac puncture at each time point (5, 15, 30, 60, 180 or 360 min post injection). A control group of 4 mice was treated with saline and killed at time point 0. The liver, lung, heart, kidneys, spleen and brain were removed from the animals and weighed. Gd content in tissue and blood samples was quantified via ICP-MS analysis. All experiments were performed in accordance with the NIH Guide for the Care and Use of Laboratory Animals and approved by the Institutional Animal Care and Use Committee of Massachusetts General Hospital or by the Department of Health of the Hong Kong Government and the Animal Subjects Ethics Sub-Committee of Hong Kong Polytechnic University.
# [5] = In vivo dynamic T1-weighted MR imaging at 4.7T; design: species or system C57/Bl6 mice; details: 0.1 mmol per kg i.v., 4.7 tesla, n = 1
# Experimental: Dynamic T1-weighted MR imaging at 4.7 tesla was performed with C57/Bl6 mice before, during, and after 0.1 mmol per kg injection of each compound (Fig. 7).
# (§3) Imaging was performed at 4.7T using a small-bore animal scanner (Bruker Biospec). Pilot dynamic MRI studies were performed with [GdL1]^−, [GdL2A]^−, [GdL2B]^− and [GdL5]^−; n = 1 per compound. Six to eight weeks male C57/Bl6 mice were anaesthetised with isoflurane (1%–2%) and placed in a specially designed cradle with body temperature maintained at 37 °C. The tail vein was catherised for intravenous delivery of the contrast agent while the animal was positioned in the scanner. A pneumatic pillow was placed on the mouse to enable respiratory monitoring (SA Instruments), and the animal’s body temperature was maintained with warm air. The imaging protocol utilised a three-dimensional fast low angle shot (3D FLASH) with a […] flip angle, 9.00 ms repetition rate, 2.39 ms echo time, 4.8 cm × 2.4 cm × 2.4 cm field of view with a 0.3 mm isotropic resolution. Images were acquired with either 2 or 8 averages giving an acquisition time of 2 min or 8 min, respectively. Baseline images were acquired with both 2 and 8 averages, then the Gd complex (0.1 mmol per kg) was injected intravenously and the sequence with 2 averages was repeated for a period of 10 min to monitor blood clearance. At 10, 30, 45, 60, 75 and 90 min after probe injection, the sequence with 8 averages was repeated to monitor the clearance of contrast from the liver and kidneys. After imaging was performed, the mouse was removed from the scanner and euthanized at 2 h post injection and the tissues were harvested for Gd quantification by ICP-MS.
# [6] = Ex vivo biodistribution 2 h post injection after MRI study (ICP-MS); format: in vivo, C57/Bl6 mice; details: 0.1 mmol per kg i.v.
# Experimental: as §2, §3
# [7] = Stability of Yb complexes in 1N DCl by 1H NMR; format: physicochemical
# Experimental: (§4) The stability of CuDOTA and CuL2 was compared by UV-Visible spectra. […] Because the ionic radii of Lu(III) is very close to Yb(III), so we used the Yb(III) as a surrogate to study the stability. […] Additionally, we examined in vitro serum stability of ^64CuL2 at 37 °C.
# [8] = In vitro serum stability of 64CuL2; format: in vitro ADME; details: 37 °C
# Experimental: as §4
structure (smiles),measurement,setting,value
CC[C@H]1CN(CC(=O)[O-])[C@@H](CC)CN(CC(=O)[O-])[C@@H](CC)CN(CC(=O)[O-])[C@@H](CC)CN1CC(=O)[O-].[Eu+3] [[EuL2A]^−],stability with Zn2+,[1]; 1 equivalent of Zn^2+,nor did the presence of 1 equivalent of Zn^2+ caused any instability
same,inertness upon heating,"[1]; 90 °C for 3 days, pD 7.0 ([EuL2A]) and 6.0 ([EuL2B])",extreme inertness
same,racemization upon heating,[1]; heating for 3 days at pD 1.0,no signs of racemization
NCCCC[C@H]1CN(CC(=O)[O-])[C@@H](CCCCN)CN(CC(=O)[O-])[C@@H](CCCCN)CN(CC(=O)[O-])[C@@H](CCCCN)CN1CC(=O)[O-].[Gd+3] [[GdL5]^−],"ΔH^‡, enthalpy change of activation of water exchange",[2],18 ± 2.5 kJ/mol
same,"τM^310K, mean residence time of the water co-ligand at 310 K","[2]; 310 K, q = 1 assumed",16 ± 0.8 ns
same,r1 relaxivity,[3]; 4.5% w/v HSA (1.4T),5.1 mM⁻¹ s⁻¹
same,r1 relaxivity,[3]; Human Plasma (1.4T),5.1 mM⁻¹ s⁻¹
same,r1 relaxivity,[3]; Water (1.4T),4.1 mM⁻¹ s⁻¹
same,Gd biodistribution / elimination profile,[4],mainly in the kidney and showed no tendency of clearance after 6 h
same,MR enhancement of liver and gall bladder,[5],very little enhancement in the liver
same,MR signal in the kidneys over time / at 60 min post injection,[5],renal cortex remained strongly enhanced
same,Gd concentration in blood,[6],0.80 nmol Gd per gram tissue
same,Gd concentration in gall bladder,[6],60.17 nmol Gd per gram tissue
same,Gd concentration in heart,[6],2.18 nmol Gd per gram tissue
same,Gd concentration in intestines,[6],2.68 nmol Gd per gram tissue
same,Gd concentration in kidney,[6],over 90 nmol Gd per gram tissue
same,Gd concentration in liver,[6],2.01 nmol Gd per gram tissue
same,Gd concentration in lung,[6],1.49 nmol Gd per gram tissue
same,Gd concentration in muscle,[6],2.97 nmol Gd per gram tissue
same,Gd concentration in spleen,[6],4.43 nmol Gd per gram tissue
same,Gd concentration in stomach,[6],1.11 nmol Gd per gram tissue
same,Gd concentration in tail,[6],2.28 nmol Gd per gram tissue
same,Gd concentration in kidney,[6]; listed as GdL5,93.23 nmol Gd per gram tissue
"O=C([O-])CN1CCN(CC(=O)[O-])CCN(CC(=O)[O-])CCN(CC(=O)[O-])CC1.[Yb+3] [[YbDOTA]^−, reference compound]",decomplexation,[7],decomplexed very fast
CC[C@H]1CN(CC(=O)[O-])[C@@H](CC)CN(CC(=O)[O-])[C@@H](CC)CN(CC(=O)[O-])[C@@H](CC)CN1CC(=O)[O-].[Yb+3] [[YbL2]^−],decomplexation,[7],no obvious decomplexation
CC[C@H]1CN(CC(=O)O)[C@@H](CC)CN(CC(=O)[O-])[C@@H](CC)CN(CC(=O)O)[C@@H](CC)CN1CC(=O)[O-].[64Cu+2] [^64CuL2],decrease of radiochemical purity,[8]; 1 h of incubation,less than 0.3%
same,decrease of radiochemical purity,[8]; 24 h of incubation,< 6.3%

# Reference: publication PMC5829242, “Chiral DOTA chelators as an improved platform for biomedical imaging and therapy applications” (Nature Communications, 2018)
